Key:
Type in all cases: cell-based
[1] = system: Wnt activity (Wnt-responsive human Sp5 promoter, TCF/LEF binding sites) in SW480 colon carcinoma cells; test: Wnt activity screening assay: Sp5-Luc luciferase reporter gene in SW480 cells; settings: 10-point dose-response from 10 μM, incubated overnight
Description: The screening assay for Wnt activity is described as follows. Reporter cell lines can be generated by stably transducing cancer cell lines (e.g., colon cancer) or primary cells (e.g., IEC-6 intestinal cells) with a lentiviral construct that includes a Wnt-responsive promoter driving expression of the firefly luciferase gene.
SW480 colon carcinoma cells were transduced with a lentiviral vector expressing luciferase with a human Sp5 promoter consisting of a sequence of eight TCF/LEF binding sites. SW480 cells stably expressing the Sp5-Luc reporter gene and a hygromycin resistance gene were selected by treatment with 150 μg/mL of hygromycin for 7 days. These stably transduced SW480 cells were expanded in cell culture and used for all further screening activities. Each compound was dissolved in DMSO as a 10 mM stock and used to prepare compound source plates. Serial dilution (1:3, 10-point dose-response curves starting from 10 μM) and compound transfer was performed using the ECHO 550 (Labcyte, Sunnyvale, Calif.) into 384-well white solid bottom assay plates (Greiner Bio-One) with appropriate DMSO backfill for a final DMSO concentration of 0.1%. For Sp5-Luc reporter gene assays, the cells were plated at 4,000 cells/well in 384-well plates with medium containing 1% fetal bovine serum and incubated overnight at 37° C. and 5% CO2. Following incubation, 20 μl of BrightGlo luminescence reagent (Promega) was added to each well of the 384-well assay plates. The plates were placed on an orbital shaker for 2 min and then luminescence was quantified using the Envision (Perkin Elmer) plate reader. Readings were normalized to DMSO only treated cells, and normalized activities were utilized for EC50 calculations using the dose-response log (inhibitor) vs. response-variable slope (four parameters) nonlinear regression feature available in GraphPad Prism 5.0 (or Dotmatics). For EC50 of >10 μM, the percent inhibition at 10 μM is provided.

[2] = system: IL-6 in human monocyte cell line (THP-1 cells); test: IL-6 inhibition in LPS-stimulated THP-1 cells (HTRF); settings: IL-6 in LPS-stimulated THP-1 cells, HTRF
Description: Human monocyte cell line (THP-1 cells; Catalog # TIB-202, ATCC, Manassas, Va.) were cultured in Roswell Park Memorial Institute (RPMI) 1640 Medium (Catalog #21870-100, Buffalo, N.Y.) with 1% L-glutamine, 1% HEPES, 1% Sodium Pyruvate, 2% Sodium Bicarbonate supplemented with 100 units/mL penicillin, 50 μg/mL streptomycin, 2-mercaptoethanol (0.05 mM) [basal medium] and 10% fetal bovine serum (Catalog #16140089, Life Technologies, Carlsbad, Calif.) at 37° C. and 5% CO2.
THP-1 cells were cultured in basal media with 1% FBS for 24 hours before the start of the assay. Each compound was dissolved in DMSO as a 10 mM stock and used to prepare compound source plates. Serial dilution (1:3, 10-point dose-response curves starting from 10 μM) and compound transfer was performed using the ECHO 550 (Labcyte, Sunnyvale, Calif.) into 384-well white low volume assay plates (Greiner Bio-One) with appropriate DMSO backfill for a final DMSO concentration of 0.1%. THP-1 cells were plated at 5000 cells/well in the 384-well plates and incubated at 37° C. for 2 h. 500 ng/mL of LPS was added after 2 hours and cells were incubated for another 22 hours at 37° C. Plates were spun in a centrifuge for 1 minute at […] and a mixture of anti-IL6 XL665, and anti-IL6 Cryptate diluted in reconstitution buffer (Cisbio Inc.) was added to each well. Following incubation for 3 hrs at room temperature, Homogeneous Time-Resolved Fluorescence (HTRF) was measured using the Envision (Perkin Elmer) at 665 nm and […]. The ratio of fluorescence at 665 nm to 620 nm was used as a readout for IL6 quantification. All samples were processed in duplicate. Readings were normalized to DMSO treated cells and normalized activities were utilized for EC50 calculations using the dose-response log (inhibitor) vs. response-variable slope (four parameters) nonlinear regression feature available in GraphPad Prism 5.0 (or Dotmatics). For EC50 of >10 μM, the percent inhibition at 10 μM is provided.

[3] = system: SW480 colon cancer cells; test: Cell viability assay (CellTiter-Blue), four days; settings: Homo sapiens, 96 h, CellTiter-Blue cell viability
Description: Representative compounds were screened using the following assay procedure to assess the effect on cell viability as described below.
Each compound was dissolved in DMSO as a 10 mM stock and used to prepare compound source plates. Serial dilution (1:3, 8-point dose-response curves from 10 μM to 0.0045 μM) and compound transfer was performed using the ECHO 550 (Labcyte, Sunnyvale, Calif.) into 96-well clear bottom, black-walled plates (Corning-Costar).
Approximately 2×10^3 SW480 colon cancer cells were seeded into each well and allowed to incubate in the presence or absence of compound for four days at 37° C./5% CO2. Eight replicates of DMSO-treated cells served as controls and cells treated with compound were performed in duplicate.
After incubation, 20 μL of CellTiter-Blue (Promega) was added to each well allowed to incubate for approximately 3 hours. This reagent was a buffered solution which contains resazurin, metabolically active cells were able to reduce rezarurin (blue) into resorufin (pink) which was highly fluorescent. This measured fluorescence was used as a readout for cell viability.
After incubation, the plates were read at Ex 560 nm Em 590 nm (Cytation 3, BioTek). Dose-response curves were generated and EC50 concentration values were calculated using non-linear regression curve fit in the GraphPad Prism (San Diego, Calif.) or Dotmatics' Studies Software (Bishops Stortford, UK). For EC50 of >10 μM, the percent inhibition at 10 μM is provided.

[4] = system: Primary human fibroblasts derived from IPF patients (LL29 cells) treated with TGF-β1; test: Inhibition of the fibrotic process: αSMA staining in TGF-β1 treated fibroblasts; settings: Fibroblast, 96 h, LL29 fibroblasts treated with TGF-β1, 4 days
Description: Representative compounds were screened using primary human fibroblasts (derived from IPF patients) treated with TGF-β1 to determine their ability to inhibit the fibrotic process.
Primary human fibroblasts derived from IPF patients (LL29 cells) [^1Xiaoqiu Liu, et. al., “Fibrotic Lung Fibroblasts Show Blunted Inhibition by cAMP Due to Deficient cAMP Response Element-Binding Protein Phosphorylation”, Journal of Pharmacology and Experimental Therapeutics (2005), 315(2), 678-687; ^2Watts, K. L., et. al., “RhoA signaling modulates cyclin D1 expression in human lung fibroblasts; implications for idiopathic pulmonary fibrosis”, Respiratory Research (2006), 7(1), 88] were obtained from American Type Culture Collection (ATCC) and expanded in F12 medium supplemented with 15% Fetal Bovine Serum and Penicillin/Streptomycin.
Each compound was dissolved in DMSO as a 10 mM stock and used to prepare compound source plates. Serial dilution (1:2, 11-point dose-response curves from 10 μM to 1.87 nM) and compound transfer was performed using the ECHO 550 (Labcyte, Sunnyvale, Calif.) into 384-well clear bottom assay plates (Greiner Bio-One) with appropriate DMSO backfill for a final DMSO concentration of 0.1%. LL29 cells are plated at 1,500 cells/well in 80 μL/well F12 medium supplemented with 1% Fetal Bovine Serum. One hour after addition of the cells, TGF-β1 (Peprotech; 20 ng/mL) was added to the plates to induce fibrosis (ref. 1 and 2 above). Wells treated with TGF-β1 and containing DMSO were used as controls. Cells were incubated at 37° C. and 5% CO2 for 4 days. Following incubation for 4 days, SYTOX green nucleic acid stain (Life Technologies [Thermo Fisher Scientific]) was added to the wells at a final concentration of 1 μM and incubated at room temperature for 30 min. Cells were then fixed using 4% formaldehyde (Electron Microscopy Sciences), washed 3 times with PBS followed by blocking and permeabilization using 3% Bovine Serum Albumin (BSA; Sigma) and 0.3% Triton X-100 (Sigma) in PBS. Cells were then stained with antibody specific to α-smooth muscle actin (αSMA; Abcam) (ref. 1 and 2 above) in 3% Bovine Serum Albumin (BSA; Sigma) and 0.3% Triton X-100 (Sigma) in PBS, and incubated overnight at 4° C. Cells were then washed 3 times with PBS, followed by incubation with Alexa Flor-647 conjugated secondary antibody (Life Technologies [Thermo Fisher Scientific]) and DAPI at room temperature for 1 hour. Cells were then washed 3 times with PBS and plates were sealed for imaging. αSMA staining was imaged by excitation at 630 nm and emission at 665 nm and quantified using the Compartmental Analysis program on the CellInsight CX5 (Thermo Scientific). Dead or apoptotic cells were excluded from analysis based on positive SYTOX green staining. % of total cells positive for αSMA were counted in each well and normalized to the average of 11 wells treated with TGF-β1 on the same plate using Dotmatics' Studies Software. The normalized averages (fold change over untreated) of 3 replicate wells for each compound concentration were used to create dose-responses curves and EC50 values were calculated using non-linear regression curve fit in the Dotmatics' Studies Software. For EC50 of >10 μM, the percent inhibition at 10 μM is provided.

EC50 [1]	EC50 [2]	EC50 [3]	SMILES	EC50 [4]
1.32 µM	1.9 µM	5.71 µM	c1ccc(-c2ccc3[nH]nc(-c4nc5cnccc5[nH]4)c3n2)nc1 [Compound 280, 3-(1H-Imidazo[4,5-c]pyridin-2-yl)-5-(pyridin-2-yl)-1H-pyrazolo[4,3-b]pyridine]	7.23 µM
0.036 µM	0.437 µM	0.688 µM	Cc1ncc(-c2ccc3[nH]nc(-c4nc5c(-c6cccc(F)c6)nccc5[nH]4)c3n2)n1C [Compound 509, 5-(1,2-Dimethyl-1H-imidazol-5-yl)-3-(4-(3-fluorophenyl)-1H-imidazo[4,5-c]pyridin-2-yl)-1H-pyrazolo[4,3-b]pyridine]	0.202 µM

SMILES	EC50 [1]	EC50 [2]	EC50 [3]	EC50 [4]
C1=C(c2ccc3[nH]nc(-c4nc5c(-c6ccc7c(c6)OCO7)nccc5[nH]4)c3n2)CCNC1 [Compound 1109, 3-(4-(Benzo[d][1,3]dioxol-5-yl)-1H-imidazo[4,5-c]pyridin-2-yl)-5-(1,2,3,6-tetrahydropyridin-4-yl)-1H-pyrazolo[4,3-b]pyridine]	0.652 µM	0.154 µM	3.41 µM	3.85 µM

From patent US10195185B2, “3-(1H-imidazo[4,5-C]pyridin-2-yl)-1H-pyrazolo[4,3-B]pyridines and therapeutic uses thereof” (Samumed, LLC, priority 2015, dated 2019)
